Data taken from patent US11926826B2, “Twist signaling inhibitor compositions and methods of using the same” (City of Hope, priority 2016, dated 2024).

Columns and labels:
Format in all cases: cell-based, human
[1] = tested on: N-Cadherin mRNA; experiment: qPCR after YTZ3-15 delivery of siTwist in SUM 1315: N-Cadherin; conditions: delivered via YTZ3-15; after seven days
Method: (§1) Cell Culture, Transfection, and Stable Cell Line Production. SUM 1315 breast cancer cells were obtained from ATCC (Manassas, VA). Cells were maintained at 37° C., 5% CO2, and 90% humidity in a tissue culture incubator. Media for SUM 1315 cells consisted of a 50-50 mixture of DMEM and F12 media, supplemented with 5 μg/ml insulin, 10 ng/ml EGF, 5% fetal bovine serum, and 1% penicillin/streptomycin. Cells were passaged using 0.25% trypsin (Genesee Scientific, San Diego, CA) every 2-3 days as they reached confluency. […]
(§2) Quantitative PCR. […] RNA quantity and quality was measured and analyzed (with 260/280 nm and 260/230 nm spectra measurements) using a NanoDrop ND-1000 (Thermo Fisher Scientific, Waltham, MA). […] Quantitative RT-PCR was performed in quadruplicate using Maxima SYBR Green Master Mix (Thermo Fisher Scientific, Waltham, MA) in 25 μl reactions. […] Data were analyzed using Bio-Rad iQ5 software using the 2^−ΔΔ^Ct method and normalized to Actin. […]

[2] = tested on: SUM 1315 cells; experiment: Wound healing assay, SUM 1315; conditions: YTZ3-15 transfection; compared to siQ
Method: Wound Healing Assay. To examine direction cell migration in vitro wound healing assays were performed as described previously. In summary, SUM 1315 cells (parental, eGFP+luc, shScram, shTwistA, and shTwistB) were grown in the conditions described above (2.1) in 6-well tissue culture plates. Once cells reached 80% confluency, a sterile 200 μl pipette tip was used to scratch a line in the monolayer of cells. Images were taken immediately after the scratch and at several time points thereafter using a Nikon TE-2000S microscope and SPOT Advanced software (Diagnostic Instruments, Sterling Heights, MI). Care was taken to always capture images in the same location for each time point. Additionally, SUM 1315 cells were transfected with siQ, siTwistA, or siTwistB using YTZ3-15 at a 50 nM final concentration. Cells were incubated with YTZ3-15+siRNA for 24 hours at 37° C., 5% CO2, and 90% humidity in a tissue culture incubator; the plates were then scratched with the 200 μl pipette tip.

[3] = tested on: Vimentin mRNA; experiment: qPCR after YTZ3-15 delivery of siTwist in SUM 1315: Vimentin; conditions: delivered via YTZ3-15; after one day
Method: as §1, §2

## si419: anti-TWIST siRNA; passenger 5′-GGACAAGCUGAGCAAGAUU-3′ (SEQ ID No: 1), guide 5′-AAUCUUGCUCAGCUUGUCCUU-3′ (SEQ ID No: 2) (listed as RNA, chemistry not fully specified)
[1]
  N-Cadherin mRNA decrease: approximately 90%
[2]
  directional migration: decreased directional migration
[3]
  Vimentin mRNA level: nearly undetectable
